Test system: AChR clusters
Test: AChR clustering inhibition trial (agrin-induced AChR clusters in myotubes, α-bungarotoxin-tetramethylrhodamine staining, confocal quantification)
Assay type: cell-based
Settings: mouse myotubes, normalized to basal values of the medium

Substance | Percentage of AChR cluster inhibition (peptide 10 μM) [%] | Percentage of AChR cluster inhibition (peptide 100 μM) [%]
Ac-L-Asp-L-Asp-L-Tyr-L-Phe-L-Arg-L-Leu-NH2 | 33.8 | 
Ac-L-Asp-L-Asp-L-Tyr-L-Tyr-L-Arg-L-Met-NH2 | 31.3 | 
Ac-L-Asp-L-Asp-L-Tyr-L-Tyr-L-Lys-L-Met-NH2 | 21.5 | 
Ac-L-Glu-L-Asp-L-Arg-L-Phe-L-Arg-L-Leu-NH2 | 20.8 | 
Ac-L-Glu-L-Asp-L-Arg-L-Phe-L-Arg-L-Met-NH2 |  | 55.1
Ac-L-Glu-L-Asp-L-Arg-L-Phe-L-Arg-L-Met-OH |  | 39.1
Ac-L-Glu-L-Asp-L-Arg-L-Phe-L-Lys-L-Leu-NH2 | 23.7 | 
Ac-L-Glu-L-Asp-L-Arg-L-Tyr-L-Arg-L-Leu-NH2 |  | 24.5
Ac-L-Glu-L-Asp-L-Tyr-L-Phe-L-Arg-L-Leu-NH2 | 30.8 | 
Ac-L-Glu-L-Asp-L-Tyr-L-Phe-L-Arg-L-Leu-OH |  | 33.8
Ac-L-Glu-L-Asp-L-Tyr-L-Tyr-L-Arg-L-Leu-NH2 | 57.1 | 
Ac-L-Pro-L-Asp-L-Arg-L-Phe-L-Lys-L-Leu-NH2 | 46.1 | 
Ac-L-Pro-L-Asp-L-Arg-L-Tyr-L-Arg-L-Leu-NH2 |  | 40.2
Ac-L-Pro-L-Asp-L-Arg-L-Tyr-L-Lys-L-Leu-NH2 |  | 43.6
Ac-L-Pro-L-Asp-L-Tyr-L-Phe-L-Arg-L-Leu-NH—(CH2)15—CH3 |  | 27.8
Ac-L-Pro-L-Asp-L-Tyr-L-Phe-L-Lys-L-Leu-NH2 | 27.8 | 
Ac-L-Pro-L-Asp-L-Tyr-L-Tyr-L-Arg-L-Leu-NH2 | 51.9 | 
Ac-L-Pro-L-Asp-L-Tyr-L-Tyr-L-Arg-L-Met-NH2 | 61.1 | 
Ac-L-Pro-L-Asp-L-Tyr-L-Tyr-L-Lys-L-Leu-NH2 |  | 36.7
Ac-L-Pro-L-Asp-L-Tyr-L-Tyr-L-Lys-L-Met-NH2 | 40.7 | 
H-L-Glu-L-Asp-L-Arg-L-Phe-L-Arg-L-Met-NH2 | 25.6 | 
Palm-L-Glu-L-Asp-L-Tyr-L-Tyr-L-Arg-L-Leu-NH2 | 34.8 | 
Palm-L-Glu-L-Asp-L-Tyr-L-Tyr-L-Arg-L-Met-NH2 |  | 68.5
Palm-L-Pro-L-Asp-L-Tyr-L-Tyr-L-Lys-L-Leu-NH2 | 33.7 | 

Source: patent US8946166B2, “Peptide-based compounds and compositions which inhibit muscle contraction” (Lipotec, S.A., priority 2009, dated 2015)
